# In US20260283925A1, “NOVEL PEPTIDE HAVING ACTIVITY OF RETARDING DEGRADATION OF HYALURONIC ACID AND USES THEREOF” (CAREGEN CO., LTD., priority 2023, published 2026):
# How the values were obtained:
# [1] = pH stability of peptide (HPLC area); assay type: physicochemical; details: 1000 ppm solution titrated to pH 4, pH 7, pH 10, HPLC area relative to pH 7, FIG. 7b
# Description: The evaluation of pH stability was performed as follows. A diluted solution of the peptide of Preparation Example 1 at a concentration of 1000 ppm was prepared, and the initial pH value of the solution was measured (pH=3.21). 0.5 M NaOH was added so as to titrate the pH of the solution to pH 4, pH 7, and pH 10, respectively. Each sample was filtered through a 0.22 μm filter. The area values were compared based on pH 7 measured by HPLC.
# [2] = Thermal stability of peptide (HPLC area); assay type: physicochemical; details: 1000 ppm solution, 25° C. and 50° C., 72 hours, FIG. 7a
# Description: The evaluation of thermal stability was performed as follows. A diluted solution of the peptide of Preparation Example 1 at a concentration of 1000 ppm was prepared, dispensed into 50 mL conical tubes, and placed in an incubator at 25° C. and 50° C. After 72 hours, 1 mL of each sample was filtered through a 0.22 μm filter. The area values were compared at 25° C. based on pH 7 measured by HPLC.
# [3] = Delay of hyaluronic acid degradation by reactive oxygen species in hyaluronic acid solution (viscosity, rheometer); details: 1.5 wt % hyaluronic acid in PBS, peptide 100, 1000, 5000 ppm, 500 mM H2O2, 60 and 180 minutes, FIG. 5
# Description: Hyaluronic acid was dissolved in PBS to a concentration of 1.5 wt % and hydrated, and 10 g of this solution was dispensed into each conical tube. Peptide solutions were added to the dispensed hyaluronic acid solutions so that the final peptide concentrations were 0 ppm (no addition), 100 ppm, 1000 ppm, and 5000 ppm, respectively. 2 mL of 500 mM hydrogen peroxide (H2O2) was added to each. Viscosity was measured using a rheometer (single shear stress) by sampling at 0, 30, 60, and 180 minutes to compare the viscosity values according to the peptide concentration. As above, 1.5 wt % hyaluronic acid solutions containing peptides at each concentration were treated with hydrogen peroxide to maintain the degradation reaction by reactive oxygen species for 60 and 180 minutes, thereby degrading hyaluronic acid. After the degradation reaction, the viscosity of each hyaluronic acid solution was measured to confirm the degradation delaying efficacy.
# [4] = tested on: hyaluronidase from bovine testes; experiment: Delay of hyaluronic acid degradation by hyaluronidase in hyaluronic acid solution (viscosity, rheometer); assay type: biochemical; details: 1.5 wt % hyaluronic acid in PBS
# Description: Hyaluronic acid was dissolved in PBS to a concentration of 1.5 wt % and hydrated, and 10 g of this solution was dispensed into each conical tube. Peptide solutions were added to the dispensed hyaluronic acid solutions so that the final peptide concentrations were 0 ppm (no addition), 100 ppm, 1000 ppm, and 5000 ppm, respectively. 2 mL of hyaluronic acid degrading enzyme (hyaluronidase from bovine testes, Hadase, Sigma) was added to each conical tube. Viscosity was measured using a rheometer (single shear stress) by sampling at 0 and 30 minutes to compare the viscosity values according to the peptide concentration. As above, the 1.5 wt % hyaluronic acid solution containing the peptides at each concentration was treated with hyaluronidase, and the enzymatic reaction was maintained for 30 minutes to decompose hyaluronic acid. After the degradation reaction, the viscosity of the hyaluronic acid solution was measured to confirm the degradation delay efficacy.
# [5] = Delay of hyaluronic acid degradation by reactive oxygen species in BDDE-cross-linked hyaluronic acid filler (Congo Red diffusion, absorbance 500 nm); details: 37° C., FIG. 6
# Description: A 1,4-Butanediol diglycidyl ether (BDDE)-cross-linked hyaluronic acid filler with or without the peptide of Preparation Example 1 was prepared, and Congo Red and hyaluronidase (HAdase) as absorbing dyes were prepared. 20 μL of 1 mM Congo Red was added to each 1.5 mL eppendorf tube, and 100 μL each of the peptide-free filler (control filler) and the peptide-containing filler were added on the absorbing dye. Each was treated with 350 μL of 500 mM hydrogen peroxide (H2O2). Each tube was placed in an incubator at 37° C., and 100 μL of the sample supernatant was collected at time points of 1 hour, 3 hours, 6 hours, 24 hours, 48 hours, and 72 hours and transferred to 96-wells. The absorbance was measured at 500 nm using a microplate reader (SpectraMax iD3, Molecular devices, USA). As above, BDDE-cross-linked hyaluronic acid filler samples with or without the peptide were prepared, and the degree of degradation of hyaluronic acid filler by reactive oxygen species was compared depending on the presence or absence of peptide. The degree of degradation of hyaluronic acid filler was measured by the change in absorbance due to the diffusion of dye. That is, the principle that the flowability of the sample increases when hyaluronic acid is degraded by reactive oxygen species and thus the diffusion of the dye increases was utilized.
# [6] = tested on: HaCaT cells (human keratinocyte cell line); experiment: Cell proliferation analysis (MTT); assay type: cell-based; details: peptide 1.6-1000 μM, 72 hours, FIG. 1
# Description: (§1) NIH3T3 cells (mouse fibroblast) and HaCaT cells (human keratinocyte cell line) were seeded at a density of 1×10^4 cells/well in a 96-well plate and cultured for 24 hours. The cells were washed once with serum-free DMEM medium. Different amounts of peptides were added to 200 μL of serum-free DMEM medium to prepare peptide medium solutions having concentrations of 1.6 μM, 8 μM, 40 μM, 200 μM, and 1000 μM, and the prepared peptide medium solutions were treated to the washed cells. Then, the treated cells were cultured in a CO2 incubator at 37° C. for 72 hours, washed twice with PBS, and MTT (Sigma, Cat. No.: M2003, USA) solution was dispensed into each well to a final concentration of 0.5 mg/mL. Then, after blocking light, the cells were cultured in a CO2 incubator at 37° C. for 4 hours. The absorbance was measured at 540 nm using a microplate reader (SpectraMax iD3, Molecular devices, USA).
# [7] = tested on: NIH3T3 cells (mouse fibroblast); experiment: Cell proliferation analysis (MTT); assay type: cell-based; details: peptide 1.6-1000 μM, 72 hours, FIG. 1
# Description: as §1
# [8] = tested on: HaCaT cells (human keratinocyte cell line); experiment: Promotion of collagen and hyaluronic acid (HA) expression, ELISA of culture supernatant; assay type: cell-based; details: 50 μM to 200 μM, 72 hours, FIG. 2
# Description: (§2) NIH3T3 cells (mouse fibroblast) and HaCaT cells (human keratinocyte cell line) were seeded at a density of 1×10^4 cells/well in a 24-well plate and cultured for 24 hours. The cells were washed once with serum-free DMEM medium. Different amounts of peptides were added to 500 μL of serum-free DMEM medium to prepare peptide medium solutions having concentrations of 50 μM, 100 μM, and 200 μM, and the washed cells were treated with the prepared peptide medium solutions. As a positive control, 100 nM […] was used in NIH3T3 cells and 100 nM IGF-1 was used in HaCaT cells. The treated cells were then cultured in a CO2 incubator at 37° C. for 72 hours. The cell culture liquid was collected, centrifuged, and the supernatant was transferred to a tube. The obtained supernatant was subjected to ELISA analysis using the Collagen ELISA kit (Abcam, Cat No.: ab210579, UK) and HA ELISA kit (ECHELON Biosciences, Cat No.: K-1200, USA), respectively.
# [9] = tested on: NIH3T3 cells (mouse fibroblast); experiment: as above; assay type: cell-based; details: 50 μM to 200 μM, 72 hours, FIG. 2
# Description: as §2
# hyaluronidase (HAdase) = experiment: Delay of hyaluronic acid degradation by hyaluronidase in BDDE-cross-linked hyaluronic acid filler (Congo Red diffusion, absorbance 500 nm); assay type: biochemical; details: 24 hours after treatment with hyaluronidase, 37° C., FIG. 4
# Description: A 1,4-Butanediol diglycidyl ether (BDDE)-cross-linked hyaluronic acid filler with or without the peptide of Preparation Example 1 was prepared, and Congo Red and hyaluronidase (HAdase) were prepared as absorbing dyes. 20 μL of 1 mM Congo Red was added to a 1.5 mL eppendorf tube, and 100 μL each of the peptide-free filler (control filler) and the peptide-containing filler were added on the absorbing dye. Each was treated with 350 μL of 0.15 mg/mL (108 units) of hyaluronidase. Each tube was placed in an incubator at 37° C., and 100 μL of the sample supernatant was collected at time points of 6 and 24 hours and transferred to a 96-well. The absorbance was measured at 500 nm using a microplate reader (SpectraMax iD3, Molecular Devices, USA). As above, BDDE-cross-linked hyaluronic acid filler samples with or without the peptide were prepared, and the degree of degradation of the hyaluronic acid filler by hyaluronidase was compared depending on the presence or absence of the peptide. The degree of degradation of the hyaluronic acid filler was measured by the change in absorbance according to the diffusion of the dye. That is, the principle, in which the flowability of the sample increases when hyaluronic acid is degraded by the degradation enzyme, thereby increasing the diffusion of the dye, was utilized.
sequence,measurement,setting,value
KIWNLEPSRNGT (H2N-Lys-Ile-Trp-Asn-Leu-Glu-Pro-Ser-Arg-Asn-Gly-Thr-COOH) [peptide having SEQ ID NO: 1],pH stability,[1],stable even at a high temperature of 50 °C and in the range of pH 4 to pH 10
same,thermal stability,[2],stable even at a high temperature of 50 °C
same,degradation delaying efficacy (viscosity of hyaluronic acid solution after hydrogen peroxide),[3],degradation of hyaluronic acid was delayed as the concentration of peptide increased
same,difference in the degradation delay efficacy of 1000 ppm and 5000 ppm,[4]; hyaluronidase 30 minutes,not significant
same,degradation delay efficacy (viscosity of hyaluronic acid solution after hyaluronidase),"[4]; peptide 100, 1000, 5000 ppm, 30 minutes, FIG. 3",degradation of hyaluronic acid was delayed as the concentration of the peptide increased
same,improvement of degradation delay versus peptide-free filler,[5]; 24 hours after treatment with 500 mM hydrogen peroxide,≥ 50%
same,effect of delaying degradation,"[5]; treated 48 hours with 500 mM hydrogen peroxide, filler without peptides mostly degraded",85%
same,effect of promoting cell proliferation,[6],significant effect of promoting cell proliferation
same,effect of promoting cell proliferation,[7],significant effect of promoting cell proliferation
same,collagen expression,[8]; Collagen ELISA,significant increase in collagen expression
same,hyaluronic acid (HA) expression,[8]; HA ELISA,increase in hyaluronic acid (HA) expression
same,collagen expression,[9]; Collagen ELISA,significant increase in collagen expression
same,hyaluronic acid (HA) expression,[9]; HA ELISA,increase in hyaluronic acid (HA) expression
same,improvement of delay of degradation versus peptide-free filler,hyaluronidase (HAdase),≥ 15%
